The source of these data is ChEMBL document CHEMBL1221220, “Transport and signaling via the amino acid binding site of the yeast Gap1 amino acid transceptor” (Nat Chem Biol, 2009).

Non-standard residues stand in square brackets, D forms with d. Residues, ends and D or L forms follow the SMILES beside them. *: point of attachment. pGlu = O=C1CC[C@@H](C(=O)O)N1; Boc = CC(C)(C)OC(=O)*; Aib = CC(C)(N)C(=O)O; Bz = O=C(c1ccccc1)*; βAla = NCCC(=O)O
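Note: amino acid uptake through Gap1 in nitrogen-starved wild-type yeast cells, measured after 60 s and expressed relative to L-citrulline.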

For the assay, the target named is T1, General amino-acid permease GAP1 (Saccharomyces cerevisiae) (UniProt P19145).
T1 sequence (whole entry): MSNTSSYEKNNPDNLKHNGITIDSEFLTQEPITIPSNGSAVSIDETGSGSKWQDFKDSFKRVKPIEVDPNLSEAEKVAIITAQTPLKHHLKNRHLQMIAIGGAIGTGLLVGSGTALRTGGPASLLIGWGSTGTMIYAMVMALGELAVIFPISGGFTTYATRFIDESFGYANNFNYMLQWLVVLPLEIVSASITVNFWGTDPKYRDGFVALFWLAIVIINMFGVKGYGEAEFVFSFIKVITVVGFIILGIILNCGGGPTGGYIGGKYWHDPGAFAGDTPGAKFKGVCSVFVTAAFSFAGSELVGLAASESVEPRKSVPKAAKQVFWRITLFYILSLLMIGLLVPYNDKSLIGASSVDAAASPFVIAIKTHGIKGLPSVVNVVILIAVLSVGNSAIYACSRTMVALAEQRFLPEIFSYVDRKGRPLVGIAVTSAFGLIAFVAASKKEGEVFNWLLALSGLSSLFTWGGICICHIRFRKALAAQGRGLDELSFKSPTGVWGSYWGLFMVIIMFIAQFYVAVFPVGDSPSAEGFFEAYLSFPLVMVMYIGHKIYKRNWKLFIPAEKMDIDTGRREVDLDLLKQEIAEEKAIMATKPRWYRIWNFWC
The conditions noted are these: sigma1278b, at 5 mM.
Description: Inhibition of nitrogen-starved wild type sigma1278b yeast Gap1-mediated amino acid uptake at 5 mM after 60 secs relative to L-citrulline
Regarding `CC(=O)NCCCC[C@H](NC(C)=O)C(=O)O`, the inhibition (commonly the percentage by which the read-out fell short of the control) was below 15%.
The result for `CC(C)C[C@H](NC(=O)[C@@H](N)[C@@H](C)O)C(=O)O` (H-Thr-Leu-OH) reads below 15%; that for `CN[C@@H](CC(C)C)C(=O)N[C@@H](CC(C)C)C(=O)O`, 15%.
The same measure for `CSCCC(NC(=O)C(C)N)C(=O)O` (racemic): below 15%; for `CC(C)C[C@H](NC(=O)OC(C)(C)C)C(=O)O`: below 15%.
For the molecule `N[C@@H]1CONC1=O`, the inhibition is below 15%.
`N[C@@H](Cc1ccc(O)cc1)C(=O)N[C@@H](Cc1ccc(O)cc1)C(=O)NCC(=O)O` (H-Tyr-Tyr-Gly-OH): the inhibition was below 15%.
The same measure for `CC(C)C(NC(=O)CN)C(=O)O` (racemic): below 15%; for `CSCC[C@H](N)C(=O)N[C@@H](CC(=O)O)C(=O)O` (H-Met-Asp-OH): below 15%; for `N[C@@H](Cc1ccccc1)C(=O)NCC(=O)O` (H-Phe-Gly-OH): below 15%.
The result for `NCC(=O)NCCC(=O)O` reads below 15%; that for `C[C@H](N)C(=O)NCC(=O)O`, above 30%; that for `CSCC[C@H](N)C(=O)N[C@@H](CCCNC(=N)N)C(=O)N[C@@H](Cc1ccccc1)C(=O)O` (H-Met-Arg-Phe-OH), 15%.
The molecule `N[C@@H](CO)C(=O)N[C@@H](CO)C(=O)N[C@@H](CO)C(=O)O` (H-Ser-Ser-Ser-OH) displayed an inhibition below 15%.
Turning to `CC(C)C[C@H](NC(=O)[C@@H](N)C(C)C)C(=O)O` (H-Val-Leu-OH), the inhibition was below 15%.
`N[C@H]1CSSC[C@@H](C(=O)O)NC1=O`: the inhibition amounted to 15%.
The same measure for `CC(C)(C)OC(=O)[C@@H](N)CSSC[C@H](N)C(=O)OC(C)(C)C`: below 15%.
As for `CSCC[C@H](N)C(=O)NCC(=O)NCC(=O)O` (H-Met-Gly-Gly-OH), the inhibition is below 15%.
Regarding `C[C@H](N)C(=O)N[C@@H](Cc1c[nH]c2ccccc12)C(=O)O` (H-Ala-Trp-OH), the inhibition is above 30%.
With `CC(C)C[C@@H](N)C(=O)NCC(=O)O` (H-[dL]-Gly-OH), the inhibition is below 15%.
Regarding `CC[C@H](C)[C@H](NC(=O)[C@@H](N)CC(C)C)C(=O)O` (H-Leu-Ile-OH), the inhibition is below 15%.
The molecule `CC[C@H](C)[C@H](NC(=O)OCc1ccccc1)C(=O)O` yielded an inhibition of 15%.
`CC[C@H](C)[C@H](N)C(=O)OC`: the inhibition was below 15%.
Take `CC(C)C[C@H](NC(=O)[C@@H](N)CC(C)C)C(=O)O`: the inhibition was below 15%.
For `CSCC[C@H](NC(=O)CN)C(=O)NCC(=O)O` (H-Gly-Met-Gly-OH), the inhibition is below 15%.
In turn, `CSCC[C@H](N)C(=O)N[C@@H](C)C(=O)N[C@@H](CO)C(=O)O` (H-Met-Ala-Ser-OH) registered an inhibition below 15%.
As to `CC(N)(Cc1ccccc1)C(=O)O` (stereo not drawn), the inhibition is below 15%.
`CC(C)C[C@H](N)C(=O)NCC(=O)N1CCC[C@H]1C(=O)O` (H-Leu-Gly-Pro-OH) displayed an inhibition below 15%.
Take `CC[C@H](C)[C@H](N)C(=O)N[C@H](C(=O)O)[C@@H](C)CC` (H-Ile-Ile-OH): the inhibition was below 15%.
The result for `CC(C)C[C@H](NC(=O)CN)C(=O)O` reads below 15%; that for `COC(=O)[C@@H](N)CCCCN`, below 15%; that for `N[C@@H](Cc1ccc(O)cc1)C(=O)NCC(=O)NCC(=O)O` (H-Tyr-Gly-Gly-OH), below 15%.
In the case of `CC(C)[C@@H](NC(=O)CN)C(=O)O`, the inhibition is below 15%.
`O=C(O)CNC(=O)CNC(=O)c1ccccc1` (Bz-Gly-Gly-OH) gave an inhibition below 15%.
`CC(C)C(NC(=O)CN)C(=O)O` (stereo in doubt) returned an inhibition below 15%.
As for `N[C@@H](CC(=O)O)C(=O)N[C@@H](CO)C(=O)O` (H-Asp-Ser-OH), the inhibition is below 15%.
The molecule `CC(C)C[C@H](NC(=O)[C@H](CC(C)C)NC(=O)[C@@H](N)CC(=O)O)C(=O)O` (H-Asp-Leu-Leu-OH) gave an inhibition of 15%.
The same measure for `NCC(=O)N[C@H](Cc1ccccc1)C(=O)O`: above 30%; for `CCC[C@@H](NC(=O)[C@@H](N)CCC(=O)O)C(=O)O`: below 15%.
`CCCC(NC(=O)C(C)N)C(=O)O` (racemic): the inhibition was below 15%.
Molecule `C[C@H](NC(=O)[C@@H](N)Cc1ccc(O)cc1)C(=O)N[C@@H](CCCNC(=N)N)C(=O)O` (H-Tyr-Ala-Arg-OH) came in with an inhibition below 15%.
For `NCCCC[C@H](NC(=O)[C@@H](N)CCCCN)C(=O)O`, the inhibition was below 15%.
`NCC(=O)N[C@@H](Cc1c[nH]c2ccccc12)C(=O)O` (H-Gly-Trp-OH) registered an inhibition above 30%.
`N=C(N)NCCC[C@H](NC(=O)[C@@H](N)Cc1ccccc1)C(=O)O` (H-Phe-Arg-OH) yielded an inhibition below 15%.
The result for `O=C(O)C1CCCCN1` (stereo not drawn) reads below 15%; that for `CC(=O)N[C@@H](CC[S+](C)[O-])C(=O)O` (stereo partly drawn), below 15%; that for `COC(=O)[C@@H](N)CC(C)C`, below 15%.
In turn, `NCC(N)=O` came in with an inhibition below 15%.
As for `CSCC[C@H](NC(=O)OC(C)(C)C)C(=O)O`, the inhibition was below 15%.
The result for `C[C@@H](O)[C@@H](NC(=O)CN)C(=O)O` reads below 15%; that for `C[C@H](NC(=O)[C@@H](N)CCC(N)=O)C(=O)O` (H-Gln-Ala-OH), below 15%.
As to `N[C@@H](Cc1c[nH]c2ccccc12)C(=O)N[C@@H](CCC(=O)O)C(=O)O` (H-Trp-Glu-OH), the inhibition was below 15%.
The molecule `NCC(=O)NCCCC(=O)O` had an inhibition below 15%.
The molecule `CC(C)(C)OC(=O)NC(Cc1ccc(O)cc1)C(=O)O` (stereo in doubt) yielded an inhibition below 15%.
For `COC(=O)CC[C@H](N)C(=O)OC`, the inhibition is below 15%.
Turning to `CC(C)(C)OC(=O)N[C@@H](Cc1ccccc1)C(=O)O`, the inhibition was above 30%.
For the molecule `NCC(=O)N1CCC[C@H]1C(=O)O` (H-Gly-Pro-OH), the inhibition was below 15%.
Regarding `CC(C)C[C@@H](NC(=O)CN)C(=O)O`, the inhibition was below 15%.
The same measure for `CSCC[C@@H](N)C(=O)NCC(=O)O` (H-[dM]-Gly-OH): below 15%; for `CC(C)C[C@H](N)C(=O)N[C@@H](C)C(=O)O` (H-Leu-Ala-OH): below 15%; for `C[C@@H](CC(=O)O)NC(=O)OC(C)(C)C`: below 15%.
Molecule `CSCC[C@H](N)C(=O)N[C@@H](CC(C)C)C(=O)O` (H-Met-Leu-OH) gave an inhibition below 15%.
`O=C(O)[C@@H]1CNCCN1` returned an inhibition below 15%.
For `N[C@@H](CCC(=O)O)C(=O)N[C@@H](CCC(=O)O)C(=O)O` (H-Glu-Glu-OH), the inhibition is below 15%.
Take `CC(C)(C)OC(=O)N1CCC[C@H]1C(=O)O`: the inhibition was below 15%.
`CC(C)C[C@H](NC(=O)[C@@H](N)CC(C)C)C(=O)NCCC(=O)O` (H-Leu-Leu-[βAla]-OH): the inhibition was above 30%.
`C[C@H](NC(=O)[C@H](Cc1cnc[nH]1)NC(=O)CN)C(=O)O` (H-Gly-His-Ala-OH) yielded an inhibition below 15%.
Consider `NCC(=O)N[C@@H](Cc1cnc[nH]1)C(=O)NCC(=O)O` (H-Gly-His-Gly-OH), for which the inhibition is below 15%.
The same measure for `C[C@H](NC(=O)[C@@H](N)[C@@H](C)O)C(=O)O` (H-Thr-Ala-OH): below 15%; for `CC(C)C[C@H](NC(=O)CCN)C(=O)O`: below 15%.
The result for `CC(C)(C)OC(=O)N[C@@H](CCCNC(=N)N)C(=O)O` reads below 15%.
The molecule `CSCC[C@H](NC(=O)[C@H](CC(C)C)NC(=O)CN)C(N)=O` (H-Gly-Leu-Met-NH2) yielded an inhibition below 15%.
As to `CC(C)C[C@H](NC(=O)CCCN)C(=O)O`, the inhibition is below 15%.
The molecule `CC[C@H](C)[C@H](N)C(N)=O` gave an inhibition below 15%.
The result for `N[C@@H](Cc1c[nH]cn1)C(=O)N[C@@H](CO)C(=O)O` (H-His-Ser-OH) reads below 15%; that for `CSCC[C@H](NC(=O)[C@@H](N)Cc1cnc[nH]1)C(=O)O` (H-His-Met-OH), 15%.
The molecule `NCCS(=O)(=O)O` gave an inhibition below 15%.
`NCC(=O)NCC(=O)NCC(=O)O` returned an inhibition below 15%.
`O=C(O)CNC(=O)[C@H](Cc1cnc[nH]1)NC(=O)[C@@H]1CCC(=O)N1` ([pGlu]-His-Gly-OH) returned an inhibition below 15%.
Turning to `CC[C@H](C)[C@H](NC(=O)OC(C)(C)C)C(=O)O`, the inhibition was below 15%.
The same measure for `CSCC[C@H](NC(=O)[C@@H](N)CCSC)C(=O)O` (H-Met-Met-OH): below 15%.
Regarding `CCCC[C@H](NC(=O)OC(C)(C)C)C(=O)O`, the inhibition was below 15%.
`CC(C)[C@H](N)C(=O)N[C@@H](CO)C(=O)O` (H-Val-Ser-OH): the inhibition is below 15%.
In turn, `C[C@H](N)C(=O)N[C@@H](CCC(=O)O)C(N)=O` (H-Ala-Glu-NH2) showed an inhibition below 15%.
For the molecule `COC(=O)[C@H](C)N`, the inhibition was below 15%.
For `COC(=O)[C@@H]1C[C@@H](O)CN1`, the inhibition is below 15%.
In turn, `CSCC[C@H](N)C(=O)N[C@@H](C)C(=O)O` (H-Met-Ala-OH) displayed an inhibition below 15%.
In turn, `C[C@H](NC(=O)OC(C)(C)C)C(=O)NC(C)(C)C(=O)O` (Boc-Ala-[Aib]-OH) showed an inhibition below 15%.
